Holding throughout (test): NCI anticancer screen, dose series, 48 h
In test [1] the test system is 786-0.
Test [2] concerns A498.
For test [3], the system named is A549.
For test [4], the system named is ACHN.
The subject of test [5] is CAKI-1.
The subject of test [6] is COLO 205.
The test system of test [7] is HOP-62.
Test [8] relates to LOX IMVI.
Test [9] concerns MOLT-4.
For test [10], the system named is NCI-H226.
The test system of test [11] is OVCAR-3.
For test [12], the system named is OVCAR-4.
The test system of test [13] is OVCAR-5.
Test [14] concerns RPMI-8226.
The subject of test [15] is RXF 393.
Test [16] has as its system SF-268.
Test [17] concerns SF-295.
Test [18] concerns SN12C.
Test [19] concerns SW-620.
Test [20] relates to T47D.

Molecules are shown by their SMILES.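 Method: 48-hour compound exposure of cells in 96-well plates, five concentrations, linear interpolation of endpoints. GI50: concentration for 50% inhibition of growth.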 The source made the active and inactive calls. Cut-off read from the data, not from the text of the source: active = GI50 up to about 1.1 µM and inactive = higher.

On to `CC1=NN(c2cccc(Cl)c2)C2(C1)C(Cl)C(=O)N2c1nc2ccccc2s1` (stereo not given), for which the GI50 in [1] was 21.1 µM (inactive); in [2], 35.9 µM (inactive); in [3] it was 25.6 µM (inactive); in test [4], 32.7 µM (inactive); in test [5], 33.1 µM (inactive); in test [6], 18 µM (inactive). For the same compound, the GI50 is 25.5 µM (inactive) in test [7]; 18.7 µM (inactive) in test [8]; 14.5 µM (inactive) in [9]; 14.2 µM (inactive) in test [10]; 20.5 µM (inactive) in [11]; 34.7 µM (inactive) in test [12]. The GI50 was 44.4 µM (inactive) in [13]; 17.3 µM (inactive) in [14]; 27.9 µM (inactive) in test [15]; 33.2 µM (inactive) in [16]; 31.2 µM (inactive) in [17]; 22.8 µM (inactive) in test [18]. Also, the GI50 in [19] is 33.2 µM (inactive); in [20] it was 26.2 µM (inactive).

`C=C[C@H]1CN2CCc3c([nH]c4c([C@@H]5CCCN5C)c(O)ccc34)[C@@H]2C[C@@H]1C[C@H]1c2[nH]c3ccccc3c2CCN1C`: the GI50 is 1.4 µM (inactive) in test [1]; 1.85 µM (inactive) in [2]; 1.5 µM (inactive) in test [3]; 1.65 µM (inactive) in [4]; 1.71 µM (inactive) in test [5]; 1.61 µM (inactive) in [6]. In addition, the GI50 is 1.35 µM (inactive) in test [7]; 1.39 µM (inactive) in [8]; 0.692 µM (active) in test [9]; 2.05 µM (inactive) in test [10]; 1.64 µM (inactive) in [11]; 1.71 µM (inactive) in test [12]. The GI50 in [13] is 1.79 µM (inactive); in test [14] it was 0.478 µM (active); in test [15], 0.274 µM (active); in [16], 1.74 µM (inactive); in test [17], 1.57 µM (inactive); in [18], 1.82 µM (inactive). Besides, the GI50 is 1.13 µM (inactive) in test [19] and 1.95 µM (inactive) in test [20].

Regarding `OC1c2ccccc2C(O)C2OC12` (stereo not given), the GI50 in test [1], in test [2], in test [3], in test [4], in test [5] and in test [6] was > 100 µM (inactive) throughout. Further, the GI50 in [7] was > 100 µM (inactive); in test [8] it was > 100 µM (inactive); in test [9], > 100 µM (inactive); in test [10], 78.5 µM (inactive); in test [11] it was > 100 µM (inactive); in test [12], > 100 µM (inactive). Besides, the GI50 in test [13], in test [14], in test [15], in test [16], in test [17] and in [18] was > 100 µM (inactive) each time. In addition, the GI50 in test [19] and in test [20] was > 100 µM (inactive) in each case.

For the compound `CCOc1cc2c(cc1O)CC[C@@H]1[C@@H]2CC[C@]2(C)C(N)CC[C@@H]12` (stereo not given in full), the GI50 was 3.5 µM (inactive) in test [1]; 5.52 µM (inactive) in [2]; 3.3 µM (inactive) in test [3]; 4.58 µM (inactive) in test [4]; 4.22 µM (inactive) in [5]; 4.49 µM (inactive) in test [6]. The GI50 is 5.94 µM (inactive) in test [7]; 4.06 µM (inactive) in test [8]; 5.93 µM (inactive) in test [9]; 2.77 µM (inactive) in [10]; 0.811 µM (active) in test [11]; 19.3 µM (inactive) in test [12]. The GI50 was 5.86 µM (inactive) in test [13]; 3.01 µM (inactive) in test [14]; 1.21 µM (inactive) in test [15]; 3.57 µM (inactive) in test [16]; 3.24 µM (inactive) in test [17]; 4.09 µM (inactive) in test [18]. The GI50 was 3.04 µM (inactive) in test [19] and 8.53 µM (inactive) in [20].

The record behind these values is ChEMBL document CHEMBL1201862, “PubChem BioAssay data set” (2004).
